Measured values published in patent US20250195613A1, “COMPOSITIONS AND METHODS FOR REDUCING BIOFILM FORMATION” (Trustees of Tufts College, priority 2022, published 2025).
Entries after “also recorded” stand apart in the source; their conditions may differ.

Legend:
Assay type in all cases: cell-based, Streptococcus mutans
S. mutans UA159 = assay: Biofilm growth CFU assay (fraction biofilm and total growth); conditions: for fractional biofilm formation (cells in biofilm relative to whole population), in words / overall (total) growth of the bacterial population / toxicity to S. mutans: 5 h, TH25% with 1% sucrose; for fractional biofilm formation (cells in biofilm relative to whole population), in words: 96-well polystyrene plate; for overall (total) growth of the bacterial population / toxicity to S. mutans: biofilm CFU per ml + supernatant CFU per ml
Procedure: The bacterial strain S. mutans UA159 (ATCC, 700610) was originally isolated from a child with active cavities. Bacteria were cultivated in Bacto Todd-Hewitt broth (TH; BD, 249240) or brain-heart infusion (BHI; BD, 237500) 1.5% agar plates at 37° C. with 5% CO2. To promote biofilm formation, S. mutans was grown in 25% TH supplemented with 1% sucrose.
(§1) Overnight cultures of S. mutans UA159 were inoculated from glycerol stocks and grown for 12-18 h in 50% TH at 37° C. with 5% CO2. Biofilms were prepared by diluting overnight cultures 1:20 into 50-100 μl of media (TH25% with 1% sucrose) and any polymer solution in a 96-well polystyrene plate for a starting inoculum of 10^7-10^8 CFU per ml. The cultures were then incubated statically for 5 hours at 37° C. with 5% CO2.
To measure total growth and relative biofilm formation, the number of cells in the biofilm and in suspension were counted using a colony forming unit (CFU) assay as previously described. See Werlang, C. A. et al., “Mucin O-glycans suppress quorum-sensing pathways and genetic transformation in Streptococcus mutans,” Nat. Microbiol. 1-10 (2021) doi: 10.1038/s41564-021-00876-1, which is incorporated herein in its entirety by reference for all purposes. Briefly, the supernatant was removed and transferred to a new 96-well plate, the biofilm was washed twice with 100 μl of phosphate-buffered saline (PBS), and the washes were added to the supernatant. The biofilm was then detached and resuspended in 100 μl of PBS by vigorously scraping with a pipette tip for 30 s. Each culture fraction was then serially diluted and plated on BHI agar. Colonies were counted after 24 h growth at 37° C. with 5% CO2. The fraction biofilm was calculated as (biofilm CFU per ml)/(biofilm CFU per ml+supernatant CFU per ml). The total growth was calculated as biofilm CFU per ml+supernatant CFU per ml. All of the conditions had at least three biological replicates (individual data points shown on graphs).

S. mutans biofilms [1] = assay: Total biofilm biomass by crystal violet staining; conditions: for total bacterial biomass incl. exopolysaccharides (crystal violet), in words: OD 580 nm
Procedure: as §1
Total biofilm biomass was measured using crystal violet staining. The supernatant was aspirated, and the biofilm was washed twice with 100 μl of PBS. Then 100 μl of 0.1% crystal violet was added to each well and incubated for 15 minutes at room temperature. The crystal violet solution was removed, and the stained biofilms were washed five times with 200 μl of distilled water. Finally, 100 μl of 30% acetic acid was added to each well to extract the absorbed crystal violet, and the OD was measured at 580 nm on a microtiter plate reader.

S. mutans biofilms [2] = assay: Confocal microscopy of SYTO9-stained biofilms; conditions: SYTO9 stain
Procedure: For confocal microscopy, S. mutans biofilms were prepared as described above on 96-well glass-bottom plates with 5 nM of SYTO9 green fluorescent nucleic acid stain (ThermoFisher, S34854) added to the cultures. Cultures were imaged on a confocal laser-scanning microscope (LSM 800; Zeiss) with a 63×/1.4 NA oil immersion objective with a step size of 0.5 μm. The excitation wavelength for SYTO9 was 488 nm. At least three stacks were recorded for each well, and at least three independent wells were analyzed for each condition. Images were analyzed with Zeiss ZEN 2.1 imaging software (Thornwood, NY, USA).

S. mutans = assay: Polymer attachment assay (bacterial attachment to polymer coating); conditions: coatings from 2 mg per ml polymer on polystyrene, 1 hour at 37° C.
Procedure: Bacterial attachment to polymer coating was assayed as previously described. See Co, J. Y., Crouzier, T. & Ribbeck, K., “Probing the Role of Mucin-Bound Glycans in Bacterial Repulsion by Mucin Coatings,” Adv. Mater. Interfaces 2, 1500179 (2015), which is incorporated herein in its entirety by reference for all purposes. Briefly, coatings were prepared by incubating 100 μl of polymer solutions (2 mg per ml in Milli-Q purified water) on 96-well polystyrene plates for 2 h at 37° C., followed by three washes with 200 μl of sterile-filtered distilled water. Overnight cultures of S. mutans were centrifuged and resuspended in sterile PBS at an OD600 of 0.4, and 50 μl of the washed culture were added to each well. The bacteria were incubated on the coating for 1 hour at 37° C. To measure cell attachment, unattached bacteria were aspirated, wells were washed three times with 200 μl of PBS, and the remaining bacteria were detached with a pipette and resuspended in PBS before being quantified by a CFU assay.

| Compound | fractional biofilm formation (cells in biofilm relative to whole population), in words (S. mutans UA159) | total bacterial biomass incl. exopolysaccharides (crystal violet), in words (S. mutans biofilms [1]) | overall (total) growth of the bacterial population / toxicity to S. mutans (S. mutans UA159) | surface attachment / community structure by confocal microscopy (S. mutans biofilms [2]) | surface attachment / community structure by confocal microscopy (S. mutans biofilms [2]; listed as mucin) | reduction of biofilm biomass (S. mutans biofilms [1]; crystal violet staining) | biofilm fraction of culture (S. mutans UA159; 0.5% MUC5B mucin) | S. mutans binding to polymer coating (S. mutans) | S. mutans binding to polymer coating (S. mutans; listed as MUC5B mucin) |
| --- | --- | --- | --- | --- | --- | --- | --- | --- | --- |
| CC(=O)N[C@H]1C(O)O[C@H](CO)[C@H](O)[C@@H]1O (stereo partly drawn) [Soluble GalNAc, N-acetyl galactosamine] | do not have a statistically significant impact | – | – | – | – | – | – | – | – |
| CC(=O)N[C@H]1[C@H]([C@H](O)[C@H](O)CO)OC(O)(C(=O)O)C[C@@H]1O (stereo partly drawn) [soluble NeuNAc, N-Acetylneuraminic acid] | small proportional reduction in the fraction of biofilm | reduction in total bacterial biomass | toxic to S. mutans; also recorded: strong killing effect | – | – | – | – | – | – |
| MUC5B: mucin purified by liquid chromatography from pooled human submandibular saliva | – | reduce the total bacterial biomass | do not affect the overall growth | no longer attached to the surface | no longer attach to the surface | 77% | 30% | do not strongly bind | did not bind |
